# Data: ChEMBL document CHEMBL4765457, “Targeting dual tolerant regions of binding pocket: Discovery of novel morpholine-substituted diarylpyrimidines as potent HIV-1 NNRTIs with significantly improved water solubility” (Eur J Med Chem, 2020)
# Experiments:
# [1] = Resistance index, ratio of EC50 for antiviral activity against HIV1 expressing RT L100I mutant infected in human MT4 cells to EC50 for antiviral activity against HIV1 3B infected in human MT4 cells; assay type: functional
# [2] = Cytotoxicity against human MT4 cells assessed as reduction in cell viability incubated for 5 days by MTT assay; assay type: cell-based; details: time 5 day
# [3] = tested on: Human immunodeficiency virus 1; assay: Antiviral activity against HIV1 harboring RT Y181C mutant infected in human MT4 cells assessed as inhibition of virus-induced cytopathic effect incubated for 5 days by MTT assay; assay type: functional, organism-based; details: Human immunodeficiency virus 1, MT4, 120 h
# [4] = tested on: Human immunodeficiency virus 1; assay: Antiviral activity against HIV1 harboring RT F227L/V106Amutant infected in human MT4 cells assessed as inhibition of virus-induced cytopathic effect incubated for 5 days by MTT assay; assay type: functional, organism-based; details: Human immunodeficiency virus 1, MT4, 120 h
# [5] = Resistance index, ratio of EC50 for antiviral activity against HIV1 expressing RT Y188L mutant infected in human MT4 cells to EC50 for antiviral activity against HIV1 3B infected in human MT4 cells; assay type: functional
# [6] = Resistance index, ratio of EC50 for antiviral activity against HIV1 expressing RT E138K mutant infected in human MT4 cells to EC50 for antiviral activity against HIV1 3B infected in human MT4 cells; assay type: functional
# [7] = tested on: Human immunodeficiency virus 1; assay: Antiviral activity against HIV1 harboring RT E138K mutant infected in human MT4 cells assessed as inhibition of virus-induced cytopathic effect incubated for 5 days by MTT assay; assay type: functional, organism-based; details: Human immunodeficiency virus 1, MT4, 120 h
# [8] = tested on: Human immunodeficiency virus 1; assay: Antiviral activity against HIV1 RES056 infected in human MT4 cells assessed as inhibition of virus-induced cytopathic effect incubated for 5 days by MTT assay; assay type: functional, organism-based; details: Human immunodeficiency virus 1, RES056, MT4, 120 h
# [9] = Resistance index, ratio of EC50 for antiviral activity against HIV1 expressing RT Y181C mutant infected in human MT4 cells to EC50 for antiviral activity against HIV1 3B infected in human MT4 cells; assay type: functional
# [10] = Resistance index, ratio of EC50 for antiviral activity against HIV1 expressing RT K103N mutant infected in human MT4 cells to EC50 for antiviral activity against HIV1 3B infected in human MT4 cells; assay type: functional
# [11] = tested on: Human immunodeficiency virus 1; assay: Antiviral activity against HIV1 harboring RT Y188L mutant infected in human MT4 cells assessed as inhibition of virus-induced cytopathic effect incubated for 5 days by MTT assay; assay type: functional, organism-based; details: Human immunodeficiency virus 1, MT4, 120 h
# [12] = tested on: Human immunodeficiency virus 1; assay: Antiviral activity against HIV1 3B infected in human MT4 cells assessed as virus-induced cytopathic effect incubated for 5 days by MTT assay; assay type: functional, organism-based; details: Human immunodeficiency virus 1, 3B, MT4, 120 h
# [13] = Selectivity index, ratio of CC50 for human MT4 cells to EC50 for antiviral activity against HIV1 RES056 infected in human MT4 cells; assay type: toxicity, cell-based; details: read-out: Ratio CC50/EC50
# [14] = tested on: Human immunodeficiency virus 1; assay: Antiviral activity against HIV1 harboring RT L100I mutant infected in human MT4 cells assessed as inhibition of virus-induced cytopathic effect incubated for 5 days by MTT assay; assay type: functional, organism-based; details: Human immunodeficiency virus 1, MT4, 120 h
# [15] = Resistance index, ratio of EC50 for antiviral activity against HIV1 expressing RT F227L/V106A mutant infected in human MT4 cells to EC50 for antiviral activity against HIV1 3B infected in human MT4 cells; assay type: functional
# [16] = Selectivity index, ratio of CC50 for human MT4 cells to EC50 for antiviral activity against HIV1 3B infected in human MT4 cells; assay type: toxicity, cell-based; details: read-out: Ratio CC50/EC50
# [17] = tested on: Human immunodeficiency virus 1; assay: Antiviral activity against HIV1 harboring RT K103N mutant infected in human MT4 cells assessed as inhibition of virus-induced cytopathic effect incubated for 5 days by MTT assay; assay type: functional, organism-based; details: Human immunodeficiency virus 1, MT4, 120 h
# [18] = Solubility of compound in water at pH 7; assay type: physicochemical
# [19] = Inhibition of HIV1 reverse transcriptase assessed as reduction in biotin-dUTP incorporation into template preincubated for 1 hr followed by template/primer and dNTP addition and measured after 1 hr by ELISA; parameters: species or system Human immunodeficiency virus 1
# [20] = Solubility of compound in water at pH 7.4; assay type: physicochemical
# [21] = Solubility of compound in water at pH 2; assay type: physicochemical
# [22] = tested on: Human immunodeficiency virus 1; assay: Potency index, ratio of zidovudine EC50 to test compound EC50 for antiviral activity against HIV1 3B infected in human MT4 cells; assay type: functional
# [23] = tested on: Human immunodeficiency virus 1; assay: Potency index, ratio of lamivudine EC50 to test compound EC50 for antiviral activity against HIV1 3B infected in human MT4 cells; assay type: functional
Compound,Ratio EC50 [1],CC50 at 120 h [2],EC50 [3],EC50 [4],Ratio EC50 [5],Ratio EC50 [6],EC50 [7],EC50 [8],Ratio EC50 [9],Ratio EC50 [10],EC50 [11],EC50 [12],selectivity ratio [13],EC50 [14],Ratio EC50 [15],selectivity ratio [16],EC50 [17],solubility [18],IC50 [19],solubility [20],also measured
Cc1cc(C#N)cc(C)c1Oc1nc(NC2CCN(CC(=O)N3CCOCC3)CC2)nc2c1CSC2,158.7,64.6 µM,13.4 µM,41.2 µM,48.4,4.1,0.627 µM,> 64.6 µM,86.9,24.2,7.45 µM,0.154 µM,< 1,24.4 µM,267.3,420,3.73 µM,–,–,–,–
Cc1cc(C#N)cc(C)c1Oc1nc(NC2CCN(CCN3CCOCC3)CC2)nc2ccsc12,99.9,36.8 µM,8.35 µM,7.14 µM,107.9,5,0.437 µM,> 36.8 µM,95.8,11.9,9.39 µM,0.087 µM,< 1,8.7 µM,81.9,423,1.04 µM,24.4 µg/mL,2.53 µM,15.6 µg/mL,solubility [21]: 207 µg/mL
Cc1cc(C#N)cc(C)c1Oc1nc(NC2CCN(CCN3CCOCC3)CC2)nc2sccc12,224.5,37.9 µM,6.9 µM,18.7 µM,690.6,9,0.586 µM,> 37.9 µM,105.5,9.3,45.2 µM,0.065 µM,< 1,14.7 µM,285.5,579,0.61 µM,29.3 µg/mL,2.36 µM,19.7 µg/mL,solubility [21]: 243 µg/mL
Cc1cc(C#N)cc(C)c1Oc1nc(NC2CCN(CC(=O)N3CCOCC3)CC2)nc2c1CCC2,150.4,73.5 µM,10.6 µM,27 µM,61.4,10.6,1.12 µM,> 73.5 µM,100.8,24.1,6.48 µM,0.106 µM,< 1,15.9 µM,256,696,2.54 µM,–,–,–,–
Cc1cc(C#N)cc(C)c1Oc1nc(NC2CCN(CCN3CCOCC3)CC2)nc2c1CSC2,95.6,28.5 µM,13.2 µM,11.8 µM,79.7,6.8,1.18 µM,> 28.5 µM,76.2,11.3,13.8 µM,0.173 µM,< 1,16.6 µM,68.4,164,1.96 µM,–,–,–,–
Cc1cc(C#N)cc(C)c1Oc1nc(NC2CCN(CC(=O)N3CCOCC3)CC2)nc2c1SCC2,105,38.6 µM,5.45 µM,> 38.6 µM,89.4,22.6,1.31 µM,> 38.6 µM,93.5,21.9,5.21 µM,0.058 µM,< 1,6.12 µM,>662.9,663,1.28 µM,35.2 µg/mL,3.37 µM,29.1 µg/mL,Ratio EC50 [22]: 2.8; Ratio EC50 [23]: <=87; solubility [21]: 248 µg/mL
Cc1cc(C#N)cc(C)c1Oc1nc(NC2CCN(CC(=O)N3CCOCC3)CC2)nc2sccc12,44.8,36.3 µM,3.64 µM,13.8 µM,87.5,4.1,0.334 µM,> 36.3 µM,44.3,19.8,7.18 µM,0.082 µM,< 1,3.67 µM,168,442,1.62 µM,34.2 µg/mL,1.49 µM,27.6 µg/mL,solubility [21]: 228 µg/mL
Cc1cc(C#N)cc(C)c1Oc1nc(Nc2ccc(C#N)cc2)nc(N)c1Br [ETRAVIRINE],1.9,> 4.59 µM,0.014 µM,0.018 µM,4.9,2.6,0.007 µM,0.038 µM,4.9,1,0.014 µM,–,> 122,0.005 µM,6.3,> 1640,0.003 µM,–,0.059 µM,–,–
Nc1ccn([C@@H]2CS[C@H](CO)O2)c(=O)n1 [LAMIVUDINE],0.3,> 87.2 µM,4.79 µM,2.77 µM,0.7,1.3,6.64 µM,8.35 µM,1,0.7,3.36 µM,5.02 µM,> 10,1.62 µM,0.6,> 17,3.75 µM,–,–,–,–
